According to the supplement of paper PMC10307832:

What was measured:
Assay in all cases: relative viability (nuclei count vs DMSO), 5 days (fraction); higher = more cells survive
NCI-H1792 = conditions: first compound 4 µM
Outline: (§1)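 Dosing by pin tool came one day after lung cancer cell lines were seeded in 1536-well plates, using either one drug or a fixed anchor-drug dose plus five library-drug doses (not always all listed) in √10 steps. After 5 days, nuclei were counted on 4× images. Relative viability is treated-well nuclei count divided by vehicle-well nuclei count, and values are medians of duplicate plates.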

NCI-H1793 = test system: NCI-H1793
Outline: as §1

NCI-H2347 = test system: NCI-H2347
Outline: as §1

NCI-H2009 = test system: NCI-H2009
Outline: as §1

NCI-H838 = test system: NCI-H838
Outline: as §1

NCI-H2170 = test system: NCI-H2170
Outline: as §1

SK-MES-1 = test system: SK-MES-1
Outline: as §1

NCI-H1355 = test system: NCI-H1355
Outline: as §1

NCI-H1993 = test system: NCI-H1993
Outline: as §1

HCC-15 = test system: HCC-15
Outline: as §1

NCI-H2228 = test system: NCI-H2228
Outline: as §1

NCI-H522 = test system: NCI-H522
Outline: as §1

Cc1sc2c(c1C)C(c1ccc(Cl)cc1)=N[C@@H](CC(=O)OC(C)(C)C)c1nnc(C)n1-2 [JQ1] + CCNC(=O)c1noc(-c2cc(C(C)C)c(O)cc2O)c1-c1ccc(CN2CCOCC2)cc1 [Luminespib] (partner 0.01 µM)
relative viability (NCI-H1792): 0.314
relative viability (NCI-H1793; first compound 0.04 µM): 0.155
relative viability (NCI-H1793; first compound 0.1265 µM): 0.209
relative viability (NCI-H1793; first compound 0.4 µM): 0.197
relative viability (NCI-H1793; first compound 1.265 µM): 0.318
relative viability (NCI-H1793; first compound 4 µM): 0.253
relative viability (NCI-H2347; first compound 0.04 µM): 0.45
relative viability (NCI-H2347; first compound 0.1265 µM): 0.675
relative viability (NCI-H2347; first compound 0.4 µM): 0.3
relative viability (NCI-H2347; first compound 1.265 µM): 0.316
relative viability (NCI-H2347; first compound 4 µM): 0.32
relative viability (NCI-H2009; first compound 0.04 µM): 0.971
relative viability (NCI-H2009; first compound 0.1265 µM): 0.657
relative viability (NCI-H2009; first compound 0.4 µM): 0.878
relative viability (NCI-H2009; first compound 1.265 µM): 0.295
relative viability (NCI-H2009; first compound 4 µM): 0.298
relative viability (NCI-H838; first compound 0.04 µM): 0.289
relative viability (NCI-H838; first compound 0.1265 µM): 0.288
relative viability (NCI-H838; first compound 0.4 µM): 0.222
relative viability (NCI-H838; first compound 1.265 µM): 0.161
relative viability (NCI-H838; first compound 4 µM): 0.144
relative viability (NCI-H2170; first compound 0.04 µM): 0.743
relative viability (NCI-H2170; first compound 0.1265 µM): 0.837
relative viability (NCI-H2170; first compound 0.4 µM): 0.572
relative viability (NCI-H2170; first compound 1.265 µM): 0.326
relative viability (NCI-H2170; first compound 4 µM): 0.336
relative viability (SK-MES-1; first compound 0.04 µM): 0.756
relative viability (SK-MES-1; first compound 0.1265 µM): 0.581
relative viability (SK-MES-1; first compound 0.4 µM): 0.317
relative viability (SK-MES-1; first compound 1.265 µM): 0.163
relative viability (SK-MES-1; first compound 4 µM): 0.173
relative viability (NCI-H1355; first compound 0.04 µM): 0.715
relative viability (NCI-H1355; first compound 0.1265 µM): 0.715
relative viability (NCI-H1355; first compound 0.4 µM): 0.453
relative viability (NCI-H1355; first compound 1.265 µM): 0.359
relative viability (NCI-H1355; first compound 4 µM): 0.339
relative viability (NCI-H1993; first compound 0.04 µM): 1.03
relative viability (NCI-H1993; first compound 0.1265 µM): 0.789
relative viability (NCI-H1993; first compound 0.4 µM): 0.821
relative viability (NCI-H1993; first compound 1.265 µM): 0.637
relative viability (NCI-H1993; first compound 4 µM): 0.889
relative viability (HCC-15; first compound 0.04 µM): 0.348
relative viability (HCC-15; first compound 0.4 µM): 0.45
relative viability (HCC-15; first compound 1.265 µM): 0.298
relative viability (HCC-15; first compound 4 µM): 0.216
relative viability (NCI-H2228; first compound 0.04 µM): 0.148
relative viability (NCI-H2228; first compound 0.1265 µM): 0.19
relative viability (NCI-H2228; first compound 0.4 µM): 0.0885
relative viability (NCI-H2228; first compound 1.265 µM): 0.112
relative viability (NCI-H2228; first compound 4 µM): 0.103
relative viability (NCI-H522; first compound 0.04 µM): 1.12
relative viability (NCI-H522; first compound 0.1265 µM): 1.21
relative viability (NCI-H522; first compound 0.4 µM): 0.677
relative viability (NCI-H522; first compound 1.265 µM): 0.601
relative viability (NCI-H522; first compound 4 µM): 0.504
